From patent publication US20040014779A1, “Methods and compositions related to IRM compounds and toll-like recptor pathways” (3M Innovative Properties Company, priority 2001, published 2004)
Where “and” joins values, the source holds several entries; their conditions need not be identical. Identical values can stand only once. Like-named read-outs stand apart in the source and are kept apart here.

Legend:
NF-κB = assay: NFkB-luc reporter in HEK293 cells with empty vector control; format: cell-based, human; conditions: luciferase signal; for fold induction at 10 µM: Homo sapiens, HEK293, 16 h, read-out: Fold Increase Over DMSO Control, HEK 293 Vector; for Fold Increase Over DMSO Control, HEK 293 Vector: 10 μM, 16 hours
Procedure: (§1) HEK 293 cells were cultured in Minimum Essential Medium (MEM) with 2 mM L-glutamine and Earle's Balanced Salt Solution (Invitrogen Corp., Rockville, Md.) adjusted to contain 1.5 g/L sodium bicarbonate, 0.1 mM non-essential amino acids, and 1.0 mM sodium pyruvate, 90%; heat-inactivated fetal calf serum, 10%. The cells were incubated at 37° C., 8% CO2.
(§2) The cells were co-transfected with human TLR7 or Empty Vector control pIRES (BD Biosciences Clontech, Palo Alto, Calif.) along with NFkB-luc reporter (Stratagene, La Jolla, Calif.) in a 10:1 ratio with Fugene 6 transfection reagent (Roche Diagnostics Corp., Indianapolis, Ind.) following the manufacturer's instructions.
(§3) The cells were stimulated with 1 μL of IRM compounds at 1 mM in DMSO (final concentration of 10 μM) or 1 μL DMSO as a control. The plates were then incubated an additional 16 hours at 37° C., 5% CO2. The luciferase signal was read using the LucLite kit (Packard Instrument Co., Meriden, Conn.). The luminescence was measured on the Topcount NXT (Packard Instrument Co., Meriden, Conn.).

human TLR7 = target: T1, human TLR7 (Homo sapiens, UniProt Q9NYK1); assay: NFkB-luc reporter in HEK293 cells transfected with human TLR7; format: cell-based
T1 construct: expressed in transfected cells; host or cells: HEK293 (pIRES, G-418 selected)
T1 sequence (Q9NYK1 27-1049): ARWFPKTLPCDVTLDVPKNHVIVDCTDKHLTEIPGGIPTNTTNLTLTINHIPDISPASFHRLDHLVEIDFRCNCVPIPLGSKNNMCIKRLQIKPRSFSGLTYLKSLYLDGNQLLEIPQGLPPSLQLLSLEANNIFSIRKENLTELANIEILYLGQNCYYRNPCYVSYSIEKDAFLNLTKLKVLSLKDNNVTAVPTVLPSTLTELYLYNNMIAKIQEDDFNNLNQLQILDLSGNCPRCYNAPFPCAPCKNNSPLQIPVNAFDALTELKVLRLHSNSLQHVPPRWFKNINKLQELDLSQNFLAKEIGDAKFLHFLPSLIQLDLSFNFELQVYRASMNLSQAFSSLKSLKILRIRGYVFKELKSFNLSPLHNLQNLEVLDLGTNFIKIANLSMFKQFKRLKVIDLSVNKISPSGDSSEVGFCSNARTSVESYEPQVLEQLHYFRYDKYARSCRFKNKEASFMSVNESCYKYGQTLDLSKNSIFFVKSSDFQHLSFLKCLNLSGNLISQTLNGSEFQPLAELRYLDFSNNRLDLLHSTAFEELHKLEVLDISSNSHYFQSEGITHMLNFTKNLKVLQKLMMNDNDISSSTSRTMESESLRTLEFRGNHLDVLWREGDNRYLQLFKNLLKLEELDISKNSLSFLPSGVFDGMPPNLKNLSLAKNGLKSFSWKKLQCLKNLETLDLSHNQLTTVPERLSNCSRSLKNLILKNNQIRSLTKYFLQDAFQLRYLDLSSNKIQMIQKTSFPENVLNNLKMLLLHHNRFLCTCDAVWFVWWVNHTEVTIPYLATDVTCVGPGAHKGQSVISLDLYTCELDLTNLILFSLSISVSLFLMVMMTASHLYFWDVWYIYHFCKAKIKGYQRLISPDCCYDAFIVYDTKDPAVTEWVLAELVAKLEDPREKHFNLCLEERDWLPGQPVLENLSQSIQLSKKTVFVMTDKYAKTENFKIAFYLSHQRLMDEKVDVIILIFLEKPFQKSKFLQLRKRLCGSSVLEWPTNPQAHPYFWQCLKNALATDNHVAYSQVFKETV
Procedure: as §1, §2, §3

TLR6 = target: T2, TLR6 (Homo sapiens, UniProt Q9Y2C9); assay: Anti-TLR6 antibody inhibition of TNF-α production by human PBMC; format: cell-based; conditions: preincubation with anti-TLR6 antibodies; compared with LPS
T2 construct: Peripheral blood mononuclear cells (PBMCS) were isolated; endogenous in cells; host or cells: human PBMC from healthy volunteers
Procedure: Peripheral blood mononuclear cells (PBMCS) were isolated with the Histopaque HybriMax—1077 density gradient (Sigma Chemical Co., St. Louis, Mo.) from healthy human volunteers after obtaining informed consent.
PBMC were resuspended in cRPMI at a concentration of 10^6 cells/ml. 100 μl of cells (10^5 cells) were then added to individual wells of a 96 well U-bottom plate (BD Biosciences Discovery Labware, Bedford, Mass.). Solutions containing cRPMI with 40 μg/ml of the affinity purified anti-TLR6 polyclonal antibody were prepared. 50 μl of the antibody solution was added to cells and incubated for 30 minutes. […] Cells were incubated for 18 hours at 37° C. in an atmosphere of 5% CO2/95% air. Supernatants were collected and frozen at −20° C. for cytokine analysis. The data are presented as % inhibition relative to control.
Data shown are representative of six independent experiments.

[1] = luciferase signal, 10 μM, 16 hours, TLR7 cells

T2 sequence (Q9Y2C9 32-796): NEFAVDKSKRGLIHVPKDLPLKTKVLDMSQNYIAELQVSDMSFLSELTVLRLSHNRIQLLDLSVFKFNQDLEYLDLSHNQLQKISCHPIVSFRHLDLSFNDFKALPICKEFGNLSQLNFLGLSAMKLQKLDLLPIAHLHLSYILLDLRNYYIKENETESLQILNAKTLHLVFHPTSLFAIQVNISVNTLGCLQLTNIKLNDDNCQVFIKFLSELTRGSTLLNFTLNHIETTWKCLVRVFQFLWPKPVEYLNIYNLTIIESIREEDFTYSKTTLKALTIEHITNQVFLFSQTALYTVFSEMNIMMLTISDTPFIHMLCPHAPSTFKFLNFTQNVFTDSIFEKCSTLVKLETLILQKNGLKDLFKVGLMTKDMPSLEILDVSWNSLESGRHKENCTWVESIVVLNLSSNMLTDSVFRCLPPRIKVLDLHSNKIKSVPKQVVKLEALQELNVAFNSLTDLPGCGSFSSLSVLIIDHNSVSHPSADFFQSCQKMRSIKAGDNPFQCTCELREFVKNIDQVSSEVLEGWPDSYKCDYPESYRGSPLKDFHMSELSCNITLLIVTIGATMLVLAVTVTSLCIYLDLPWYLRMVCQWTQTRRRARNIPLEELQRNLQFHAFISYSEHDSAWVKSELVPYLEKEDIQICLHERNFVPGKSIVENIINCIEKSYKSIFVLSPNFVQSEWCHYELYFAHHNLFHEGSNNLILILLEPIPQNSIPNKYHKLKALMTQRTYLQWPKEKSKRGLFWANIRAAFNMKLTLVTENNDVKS
T2 sequence (O60603 21-784 partner): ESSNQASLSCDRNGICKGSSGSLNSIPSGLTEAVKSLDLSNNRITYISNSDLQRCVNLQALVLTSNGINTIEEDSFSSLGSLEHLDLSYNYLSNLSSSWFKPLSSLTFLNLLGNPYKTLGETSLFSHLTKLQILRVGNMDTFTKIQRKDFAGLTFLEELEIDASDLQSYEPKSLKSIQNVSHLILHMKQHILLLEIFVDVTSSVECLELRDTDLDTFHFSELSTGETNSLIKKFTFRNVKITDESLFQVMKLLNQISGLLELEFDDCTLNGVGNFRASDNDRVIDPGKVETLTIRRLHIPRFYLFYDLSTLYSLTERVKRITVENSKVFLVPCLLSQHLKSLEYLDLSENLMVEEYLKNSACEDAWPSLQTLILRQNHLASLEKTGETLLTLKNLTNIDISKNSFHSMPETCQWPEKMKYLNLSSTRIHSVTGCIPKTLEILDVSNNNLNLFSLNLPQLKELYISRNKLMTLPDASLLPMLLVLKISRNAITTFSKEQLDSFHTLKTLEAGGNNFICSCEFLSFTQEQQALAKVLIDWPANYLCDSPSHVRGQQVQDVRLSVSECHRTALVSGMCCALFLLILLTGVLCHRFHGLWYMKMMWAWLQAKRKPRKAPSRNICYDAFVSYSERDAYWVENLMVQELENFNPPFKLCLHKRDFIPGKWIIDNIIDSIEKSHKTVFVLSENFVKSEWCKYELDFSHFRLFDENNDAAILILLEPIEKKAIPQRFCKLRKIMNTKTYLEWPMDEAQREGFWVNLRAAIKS

Molecule | fold induction at 10 µM (NF-κB) | Fold Increase Over DMSO Control, HEK293 TLR7 (human TLR7; [1]) | Fold Increase Over DMSO Control, HEK 293 Vector (NF-κB) | Effect of anti-TLR6 antibodies on stimulus-induced TNF-α production (in words) (TLR6) | Fold Increase Over DMSO Control, HEK293 TLR7 (human TLR7)
CCCCc1nc2c(N)nc3ccccc3c2n1CCNS(C)(=O)=O [IRM 15, N-[2-(4-amino-2-butyl-1H-imidazo[4,5-c]quinolin-1-yl)ethyl]methanesulfonamide] | 1.04 | 1.88 fold | – | – | –
Cc1nc2c(N)nc3ccccc3c2n1CC(C)(C)O.Cl [IRM 1, 4-amino-α,α,2-trimethyl-1H-imidazo[4,5-c]quinoline-1-ethanol hydrochloride] | 0.86 | 3.75 fold | – | – | –
C[C@H](c1ccccc1)n1cnc2c(N)nc3ccccc3c21 [IRM 10, 1-[R(+)-1-phenylethyl]-1H-imidazo[4,5-c]quinolin-4-amine] | – | 2.55 fold | 1.10 fold | – | –
CCCCc1nc2c(N)nc3ncccc3c2n1CC(C)C [IRM 5, 2-butyl-1-(2-methylpropyl)-1H-imidazo[4,5-c][1,8]naphthyridin-4-amine] | 1.21 | 1.13 fold | – | – | –
CCCCc1nc2c(N)nc3c(c2n1CC(C)C)NCCC3 [IRM 8, 2-butyl-6,7,8,9-tetrahydro-1-(2-methylpropyl)-1H-imidazo[4,5-c][1,5]naphthyridin-4-amine] | 0.91 | 4.59 fold | – | – | –
CCCCc1nc2c(N)nc3cccnc3c2n1CC(C)C [IRM 7, 2-butyl-1-(2-methylpropyl)-1H-imidazo[4,5-c][1,5]naphthyridin-4-amine] | 1.3 | 3.06 fold | – | – | –
CCCCc1nc2c(N)nc(C)c(C)c2n1CCCCNS(C)(=O)=O [IRM 17, N-[4-(4-amino-2-butyl-6,7-dimethyl-1H-imidazo[4,5-c]pyridin-1-yl)butyl]methanesulfonamide] | 0.99 | 2.79 fold and 2.71 fold | – | – | –
CCCCc1nc2c(N)nc3cccnc3c2s1 [IRM 11, 2-butyl[1,3]thiazolol[4,5-c][1,5]naphthyridin-4-amine] | – | 1.06 fold | 1.35 fold | – | –
COCCc1nc2c(N)nc3ccccc3c2n1CCCCNC(=O)N1CCOCC1 [IRM 16, N-{4-[4-amino-2-(2-methoxyethyl)-1H-imidazo[4,5-c]quinolin-1-yl]butyl}morpholine-4-carboxamide] | 0.98 | 1.51 fold | – | – | –
Peptidoglycan | – | – | – | inhibited by the antibodies to a greater extent | –
CCOCc1nc2c(N)nc3c(c2n1CC(C)(C)O)CCCC3 [IRM 9, 4-amino-2-ethoxymethyl-α,α-dimethyl-6,7,8,9-tetrahydro-1H-imidazol[4,5-c]quinoline-1-ethanol] | – | – | 0.81 fold | – | 4.67 fold
CCCCc1nc2c(N)nc3cnccc3c2n1CC(C)C [IRM 6, 2-butyl-1-(2-methylpropyl)-1H-imidazo[4,5-c][1,7]naphthyridin-4-amine] | 0.95 | 1.25 fold | – | – | –
Nc1nc2ccccc2c2c1ncn2CCOCCCc1cccnc1 [IRM 4, 1-{2-[3-(3-pyridyl)propoxy]ethyl}-1H-imidazo[4,5-c]quinolin-4-amine] | 1 | 4.06 fold | – | – | –
COCCc1nc2c(N)nc3ccccc3c2n1CCCCNC(=O)c1ccc(-n2cccc2)nc1 [IRM 14, N^3-{4-[4-amino-2-(2-methoxyethyl)-1H-imidazo[4,5-c]quinolin-1-yl]butyl}-6-(1H-1-pyrrolyl)nicotinamide] | 1.31 | 1.37 fold | – | – | –
CCCCc1nc2c(N)nc3ccccc3c2n1CCCCNS(C)(=O)=O [IRM 12, N-[4-(4-amino-2-butyl-1H-imidazo[4,5-c]quinolin-1-yl)butyl]methanesulfonamide] | 1.33 | 15.33 fold | – | – | –
Nc1nc2ccccc2c2c1nc1n2CCCC1 [IRM 13, 8,9,10,11-tetrahydropyrido[1′,2′:1,2]imidazol[4,5-c]quinolin-6-amine] | – | 2.39 fold | 1.20 fold | – | –
